From patent US10280174B2, “Salt of fused pyrimidine compound and crystal thereof” (TAIHO PHARMACEUTICAL CO., LTD., priority 2015, dated 2019)

Legend:
A431 cells / TMD8 cells = test: Proliferation inhibitory activity against cell lines expressing BTK and EGFR, and selectivity; type: cell-based, human
Description: TMD8 cells, which are of a diffuse large B-cell lymphoma cell line expressing BTK, were suspended in RPMI1640 medium (manufactured by Life Technologies Corp.) containing 10% fetal bovine serum. A431 cells, which are of an EGFR-overexpressing, highly activated human epidermoid carcinoma cell line, were suspended in DMEM, high glucose medium (manufactured by Life Technologies Corp.) containing 10% fetal bovine serum. The cell suspensions were inoculated into each well of 384-well flat-bottomed microplates, and the cells were cultured for 1 day at 37° C. in an incubator containing 5% carbon dioxide gas. […] A DMSO solution of the test compounds was diluted with the medium used in the suspension of the each cell, and this was added to each of the wells of the cell culture plates such that the final concentration of DMSO would be 0.2%. The cells were further cultured for 3 days at 37° C. in an incubator containing 5% carbon dioxide gas. […] Proliferation inhibition ratio (%)=(C−T)/(C−C0)×100
C0: Luminescence intensity of a well measured before the addition of the test compound

[1] = test system: mouse collagen-induced arthritis model; test: Mice collagen-induced arthritis model; type: in vivo, DBA/1 mice; conditions: 0.381 mg/kg, oral, 1 time per day, 17 days; FIG. 11
Protocol: The test was carried out in accordance with the method described in Non-Patent Literature (Brand D D, et al., Nat Protoc. 2007; 2, 1269-1275, Xu D. et al., JPET, 2012 April; 341 (1):90-103). Seven-week-old male/DBA/1 mice (CHARLES RIVER LABORATORIES JAPAN, INC.) were intracutaneously injected in the dorsum with 100 μL/body of an equal amount-mixed solution (emulsion) of 4 mg/mL of bovine type 2 collagen solution (Collagen Research Center) and Complete Freund's Adjuvant (DIFCO Inc.) (initial immunization). After 21 days therefrom, the mice were intracutaneously injected in the chine with 100 μL/body of an equal amount-mixed solution (emulsion) of 4 mg/mL of bovine type 2 collagen solution (Collagen Research Center) and Complete Freund's Adjuvant (DIFCO) to provide an additional immunization. The oral administration of 1 time per day was continued for 17 days setting the administration initiation day (day 0) as the eighth day from the additional immunization. Symptoms of arthritis in day 0, day 3, day 7, day 10, day 14 and day 17 were scored macroscopically (0: No change, 1: Swelling of a finger, 2: Swelling of two fingers or more, 3: Swelling of instep, 4: Swelling of all fingers extending wrist/ankle), and a total in four limbs was obtained as a point of individual body (maximum 16 points).

C=CC(=O)N1CCC[C@@H](n2nc(C(=O)Nc3nc4ccccc4o3)c3c(N)ncnc32)C1.O=C(O)/C=C/C(=O)O [monofumarate of Compound A, (R)-1-(1-acryloylpiperidin-3-yl)-4-amino-N-(benzo[d]oxazol-2-yl)-1H-pyrazolo[3,4-d]pyrimidine-3-carboxamide.monofumarate]
BTK inhibition selectivity in the cell proliferation inhibition ratio relative to Comparative compound 1 (A431 cells / TMD8 cells; A431/TMD8): about 65 times
A431 cell proliferation inhibition ratio/TMD8 cell proliferation inhibition ratio (A431 cells / TMD8 cells; GI50 based, 3 days culture, CELLTITER GLO): 7643
arthritis score [1]: lowered the arthritis score effectively
